Source: patent publication US20230114728A1 (Venatorx Pharmaceuticals, Inc., priority 2019, published 2023)
≈ marks a conversion by molar mass, not a printed value.

Legend:
[1] = molecular target: T1, E. coli K12 PBP3 (Escherichia coli, UniProt P0AD68); experiment: biochemical; format: binding
T1 construct: made in house
Method in brief: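 Fluorescence polarization (ex 490/em 520 nm) competition of inhibitors against Bocillin-FL at 0.1 μM, read up to 60 min. Final PBP levels: E. coli PBP3 1.5 μM; A. baumannii PBP2 2.5 μM, PBP3 0.2 μM in Tris pH 8.0/NaCl/glycerol/Tween 20; N. gonorrhoeae PBP2 […] in Hepes pH 8.0/NaCl/glycerol. EC50 = concentration halving PBP-bound Bocillin-FL.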

[2] = molecular target: T2, P. aeruginosa PBP3 (Pseudomonas aeruginosa, UniProt G3XD46); experiment: Bocillin-FL fluorescence polarization competition binding assay, P. aeruginosa PBP3; details: fluorescence polarization competition binding assay using Bocillin-FL
T2 construct: made in house
T2 sequence (G3XD46 whole entry): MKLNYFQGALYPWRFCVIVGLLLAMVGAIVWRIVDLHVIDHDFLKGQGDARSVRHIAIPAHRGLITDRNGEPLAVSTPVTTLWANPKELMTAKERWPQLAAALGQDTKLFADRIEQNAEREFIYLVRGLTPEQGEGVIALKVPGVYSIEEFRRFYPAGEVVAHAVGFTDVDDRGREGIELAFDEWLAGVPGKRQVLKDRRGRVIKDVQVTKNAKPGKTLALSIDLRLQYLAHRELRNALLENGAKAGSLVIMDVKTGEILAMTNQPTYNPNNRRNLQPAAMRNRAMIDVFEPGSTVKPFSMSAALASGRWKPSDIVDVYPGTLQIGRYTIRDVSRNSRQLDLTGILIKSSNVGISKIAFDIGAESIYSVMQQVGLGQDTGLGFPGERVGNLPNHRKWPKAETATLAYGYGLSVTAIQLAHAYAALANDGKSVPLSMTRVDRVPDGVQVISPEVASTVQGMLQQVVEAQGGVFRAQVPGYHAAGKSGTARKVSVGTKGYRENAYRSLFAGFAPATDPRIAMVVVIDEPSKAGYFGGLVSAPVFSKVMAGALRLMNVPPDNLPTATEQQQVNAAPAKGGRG
Method in brief: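 Binding of boronic acid inhibitors to purified Pseudomonas aeruginosa (PA01) PBP3 was measured by fluorescence polarization competition with Bocillin-FL, a fluorescent penicillin V. Reactions of 80 μl contained 0.75 μM PBP3 and 0.1 μM Bocillin-FL in 50 mM Hepes (pH 8.0), 300 mM NaCl and 5% (v/v) glycerol, in black 384-well plates. FP (Excitation 490 nm, Emission 520 nm) was read for up to 60 minutes. EC50 is the concentration that halves PBP-bound Bocillin-FL.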

[3] = test system: A. baumannii ATCC 19606; experiment: Broth microdilution MIC in CAMHB; format: cell-based; details: Acinetobacter baumannii, ATCC19606; MHB; read-out: Minimum Inhibitory Concentration, A. baumannii ATCC 19606
Method in brief: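 Lowest compound concentration with no visible growth after 16-20 h at 37 °C defines MIC. Plates of 2-fold serial dilutions in cation-adjusted Mueller Hinton broth received 2-8×10^5 CFU/mL of exponentially grown cells, per CLSI methods; panel spans reference, hyper-permeable and efflux-pump-deleted strains.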

[4] = test system: E. coli 901C; experiment: Broth microdilution MIC in CAMHB; format: cell-based; details: Escherichia coli; E. coli 901C (hyper-permeable); MHB; read-out: Minimum Inhibitory Concentration, E. coli 901C
Method in brief: (§1)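 Colonies from cation-adjusted Mueller Hinton agar are grown in broth (3-5 h, 37° C), adjusted by OD600, and added at 2-8×10^5 CFU/mL to 2-fold compound dilutions. After 16-20 h at 37° C, the lowest concentration without growth is taken as MIC.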

[5] = test system: E. coli AG100A; experiment: Broth microdilution MIC in CAMHB; format: cell-based; details: Escherichia coli, read-out: Minimum Inhibitory Concentration, E. coli AG100A
Method in brief: as §1

[6] = test system: E. coli AG100; experiment: Broth microdilution MIC in CAMHB; format: cell-based; details: Escherichia coli; E. coli AG100 (wild-type parent); MHB; read-out: Minimum Inhibitory Concentration, E. coli AG100
Method in brief: as §1

[7] = test system: E. coli ATCC 25922; experiment: Broth microdilution MIC in CAMHB; format: cell-based; details: Escherichia coli, ATCC25922; E. coli ATCC 25922; MHB; read-out: Minimum Inhibitory Concentration, E. coli 25922
Method in brief: as §1

[8] = test system: E. coli D22; experiment: Broth microdilution MIC in CAMHB; format: cell-based; details: Escherichia coli; E. coli D22 (hyper-permeable); MHB; read-out: Minimum Inhibitory Concentration, E. coli D22
Method in brief: as §1

[9] = test system: K. pneumoniae 848844 producing SHV-11 and KPC-2; experiment: Broth microdilution MIC in CAMHB; format: cell-based; details: Klebsiella pneumoniae, read-out: Minimum Inhibitory Concentration, K. pneumoniae 848844
Method in brief: as §1

[10] = test system: K. pneumoniae SI-117 producing VIM-1; experiment: Broth microdilution MIC in CAMHB; format: cell-based; details: Klebsiella pneumoniae, read-out: Minimum Inhibitory Concentration, K. pneumoniae SI-117
Method in brief: as §1

[11] = test system: K. pneumoniae UMM producing SHV-5 and KPC-2; experiment: Broth microdilution MIC in CAMHB; format: cell-based; details: Klebsiella pneumoniae, read-out: Minimum Inhibitory Concentration, K. pneumoniae UMM
Method in brief: as §1

[12] = test system: P. aeruginosa (ΔmexAB-oprM); experiment: Broth microdilution MIC in CAMHB; format: cell-based; details: Pseudomonas aeruginosa, read-out: Minimum Inhibitory Concentration, P. aeruginosa ΔmexAB-OprM
Method in brief: as §1

[13] = test system: P. aeruginosa ATCC 35151; experiment: Broth microdilution MIC in CAMHB; format: cell-based; details: Pseudomonas aeruginosa, ATCC35151; MHB; hyper-permeable strain; read-out: Minimum Inhibitory Concentration, P. aeruginosa ATCC 35151
Method in brief: as §1

[14] = test system: P. aeruginosa PAO1; experiment: Broth microdilution MIC in CAMHB; format: cell-based; details: Pseudomonas aeruginosa, MHB, read-out: Minimum Inhibitory Concentration, P. aeruginosa PAO1
Procedure: To determine the ability of test compounds to inhibit the growth of bacterial strains, classic cell based broth microdilution minimum inhibitory concentration (MIC) assays were employed. MIC assays are performed according to CLSI methods except where otherwise noted (CLSI, 2018 and CLSI, 2019). The reference type strain E. coli ATCC 25922; the wild-type parent strain E. coli AG100; the hyper-permeable E. coli 901C and E. coli D22; and the E. coli AG100A strain lacking the acrAB efflux pump encoding genes were used to determine the ability of the PBP inhibitors to penetrate the outer membrane of gram-negative bacteria and inhibit bacterial growth. […] The P. aeruginosa ATCC 27853 and A. baumannii ATCC 19606, along with the hyper-permeable P. aeruginosa ATCC 35151 and an engineered efflux pump-compromised strain of P. aeruginosa (ΔmexAB-oprM) were used to determine the ability of PBP inhibitors to penetrate the outer membrane of P. aeruginosa and A. baumannii and assess antibacterial activity against these important gram-negative organisms.
Briefly, cryo-preserved bacterial cultures of challenge strains are streaked for isolation on appropriate agar medium, in this case cation-adjusted Mueller Hinton agar. Following incubation to allow growth of the colonies, plates are sealed with parafilm and stored refrigerated for up to two weeks. For preparation of assay inoculum and to ensure low variability, at least 5 colonies are picked from the agar plates with an inoculating loop and aseptically transferred to a culture tube containing 3 mL of cation-adjusted Mueller Hinton broth (CAMHB). The broth culture is grown for 3-5 hours at 37° C. with shaking at 200 rpm. Meanwhile, 2-fold serial dilutions of test compounds are conducted in a 96-well plate with a final volume of 75 μL per well at 2-fold the final desired concentration. After the dilution plates are set up the growing cultures are then diluted in a cuvette containing CAMHB and the optical density is measured at 600 nm. The inoculum is diluted such that 75 μL of this culture in CAMHB results in a starting bacterial concentration of 2-8×10^5 CFU/mL when added to the dilution plates. The plates are incubated for 16-20 hours for Enterobacteriaceae and Pseudomonas and 20-24 hours for Acinetobacter at 37° C. The MIC values are read visually as the lowest concentration well with no bacterial growth.

T1 sequence (P0AD68 1-577): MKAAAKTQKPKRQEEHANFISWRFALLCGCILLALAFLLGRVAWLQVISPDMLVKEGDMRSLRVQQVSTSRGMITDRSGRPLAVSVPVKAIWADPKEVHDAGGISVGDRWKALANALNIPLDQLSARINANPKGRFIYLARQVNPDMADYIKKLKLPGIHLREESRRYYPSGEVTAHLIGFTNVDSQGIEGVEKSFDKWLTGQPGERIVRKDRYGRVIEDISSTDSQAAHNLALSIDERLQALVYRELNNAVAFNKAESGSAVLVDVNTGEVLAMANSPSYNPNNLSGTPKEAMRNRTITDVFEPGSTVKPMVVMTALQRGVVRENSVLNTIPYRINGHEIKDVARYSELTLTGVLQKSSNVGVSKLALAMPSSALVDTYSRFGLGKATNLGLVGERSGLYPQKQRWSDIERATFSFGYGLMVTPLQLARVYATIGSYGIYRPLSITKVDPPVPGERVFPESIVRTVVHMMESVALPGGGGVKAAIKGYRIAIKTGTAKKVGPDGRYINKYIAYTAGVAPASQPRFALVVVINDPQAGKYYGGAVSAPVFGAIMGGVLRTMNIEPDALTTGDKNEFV

| SMILES | EC50 [1] [µM] | P. aeruginosa PBP3 Potency [2] | MIC [3] [µg/mL] | MIC [4] [µg/mL] | MIC [5] [µg/mL] | MIC [6] [µg/mL] | MIC [7] [µg/mL] | MIC [8] [µg/mL] | MIC [9] [µg/mL] | MIC [10] [µg/mL] | MIC [11] [µg/mL] | MIC [12] [µg/mL] | MIC [13] [µg/mL] | MIC [14] [µg/mL] |
| --- | --- | --- | --- | --- | --- | --- | --- | --- | --- | --- | --- | --- | --- | --- |
| CCN1CCN(C(=O)NC(C(=O)N[C@H]2Cc3ccc(SCCN4CCCC4)c(C(=O)O)c3OB2O)c2csc(N)n2)C(=O)C1=O (stereo partly drawn) [Example 64, (3R)-3-(2-(2-aminothiazol-4-yl)-2-(4-ethyl-2,3-dioxopiperazine-1-carboxamido)acetamido)-2-hydroxy-7-((2-(pyrrolidin-1-yl)ethyl)thio)-3,4-dihydro-2H-benzo[e][1,2]oxaborinine-8-carboxylic acid] | > 500 | B (B represents a potency between 30 μM and 500 μM inclusive) | > 128 | 32 to 64 (≈ 48.5 to 97 µM) | > 128 | > 128 | > 128 | > 128 | > 128 | > 128 | > 128 | > 128 | 8 to 16 (≈ 12.1 to 24.3 µM) | > 128 |
| CCN1CCN(C(=O)NC(C(=O)N[C@H]2Cc3ccc(O)c(C(=O)O)c3OB2O)c2ccccc2)C(=O)C1=O (stereo partly drawn) [Example 61, (3R)-3-(2-(4-ethyl-2,3-dioxopiperazine-1-carboxamido)-2-phenylacetamido)-2,7-dihydroxy-3,4-dihydro-2H-benzo[e][1,2]oxaborinine-8-carboxylic acid] | – | B (B represents a potency between 30 μM and 500 μM inclusive) | > 128 | 0.5 to 1 (≈ 0.954 to 1.91 µM) | 32 to 64 (≈ 61 to 122 µM) | 32 to 64 (≈ 61 to 122 µM) | 32 to 64 (≈ 61 to 122 µM) | 8 to 16 (≈ 15.3 to 30.5 µM) | > 128 | > 128 | > 128 | > 128 | 8 to 16 (≈ 15.3 to 30.5 µM) | > 128 |
| CCN1CCN(C(=O)NC(C(=O)N[C@H]2Cc3ccc(SCCNCCN)c(C(=O)O)c3OB2O)c2csc(N)n2)C(=O)C1=O (stereo partly drawn) [Example 66, (3R)-7-((2-((2-aminoethyl)amino)ethyl)thio)-3-(2-(2-aminothiazol-4-yl)-2-(4-ethyl-2,3-dioxopiperazine-1-carboxamido)acetamido)-2-hydroxy-3,4-dihydro-2H-benzo[e][1,2]oxaborinine-8-carboxylic acid] | > 500 | – | > 128 | 32 to 64 (≈ 49.3 to 98.7 µM) | 32 to 64 (≈ 49.3 to 98.7 µM) | > 128 | > 128 | 32 to 64 (≈ 49.3 to 98.7 µM) | > 128 | > 128 | > 128 | > 128 | 8 to 16 (≈ 12.3 to 24.7 µM) | > 128 |
| CCN1CCN(C(=O)NC(C(=O)N[C@H]2Cc3ccc(SC)c(C(=O)O)c3OB2O)c2csc(N)n2)C(=O)C1=O (stereo partly drawn) [Example 56, (3R)-3-(2-(2-aminothiazol-4-yl)-2-(4-ethyl-2,3-dioxopiperazine-1-carboxamido)acetamido)-2-hydroxy-7-(methylthio)-3,4-dihydro-2H-benzo[e][1,2]oxaborinine-8-carboxylic acid] | 30 to 500 | – | > 128 | 0.5 to 1 (≈ 0.867 to 1.73 µM) | 8 to 16 (≈ 13.9 to 27.8 µM) | 32 to 64 (≈ 55.5 to 111 µM) | 32 to 64 (≈ 55.5 to 111 µM) | 8 to 16 (≈ 13.9 to 27.8 µM) | 32 to 64 (≈ 55.5 to 111 µM) | 32 to 64 (≈ 55.5 to 111 µM) | 8 to 16 (≈ 13.9 to 27.8 µM) | 32 to 64 (≈ 55.5 to 111 µM) | 0.5 to 1 (≈ 0.867 to 1.73 µM) | > 128 |
| CCN1CCN(C(=O)NC(C(=O)N[C@H]2Cc3ccc(SCC[N+]4(C)CCCC4)c(C(=O)O)c3OB2O)c2csc(N)n2)C(=O)C1=O.O=C([O-])C(F)(F)F (stereo partly drawn) [Example 65, 1-(2-(((3R)-3-(2-(2-aminothiazol-4-yl)-2-(4-ethyl-2,3-dioxopiperazine-1-carboxamido)acetamido)-8-carboxy-2-hydroxy-3,4-dihydro-2H-benzo[e][1,2]oxaborinin-7-yl)thio)ethyl)-1-methylpyrrolidin-1-ium 2,2,2-trifluoroacetate] | > 500 | – | > 128 | 32 to 64 | 32 to 64 | > 128 | > 128 | > 128 | > 128 | > 128 | > 128 | > 128 | 8 to 16 | > 128 |
| CCN1CCN(C(=O)NC(C(=O)N[C@H]2Cc3ccc(C=NOCCN)c(C(=O)O)c3OB2O)c2csc(N)n2)C(=O)C1=O (stereo partly drawn) [Example 62, (3R)-7-(((2-aminoethoxy)imino)methyl)-3-(2-(2-aminothiazol-4-yl)-2-(4-ethyl-2,3-dioxopiperazine-1-carboxamido)acetamido)-2-hydroxy-3,4-dihydro-2H-benzo[e][1,2]oxaborinine-8-carboxylic acid] | > 500 | B (B represents a potency between 30 μM and 500 μM inclusive) | > 128 | 32 to 64 (≈ 51.9 to 104 µM) | 32 to 64 (≈ 51.9 to 104 µM) | > 128 | > 128 | 32 to 64 (≈ 51.9 to 104 µM) | > 128 | > 128 | > 128 | > 128 | 8 to 16 (≈ 13 to 26 µM) | > 128 |
| CCN1CCN(C(=O)NC(C(=O)N[C@H]2Cc3ccc(SCCN)c(C(=O)O)c3OB2O)c2csc(N)n2)C(=O)C1=O (stereo partly drawn) [Example 67, (3R)-7-((2-aminoethyl)thio)-3-(2-(2-aminothiazol-4-yl)-2-(4-ethyl-2,3-dioxopiperazine-1-carboxamido)acetamido)-2-hydroxy-3,4-dihydro-2H-benzo[e][1,2]oxaborinine-8-carboxylic acid] | 30 to 500 | – | > 128 | 0.5 to 1 (≈ 0.826 to 1.65 µM) | 32 to 64 (≈ 52.9 to 106 µM) | > 128 | 32 to 64 (≈ 52.9 to 106 µM) | 8 to 16 (≈ 13.2 to 26.4 µM) | > 128 | 32 to 64 (≈ 52.9 to 106 µM) | 32 to 64 (≈ 52.9 to 106 µM) | 32 to 64 (≈ 52.9 to 106 µM) | 0.5 to 1 (≈ 0.826 to 1.65 µM) | > 128 |
